Measured values as given in ChEMBL document CHEMBL1156531, “Designer enediynes generate DNA breaks, interstrand cross-links, or both, with concomitant changes in the regulation of DNA damage responses” (2007).
The source made the active and inactive calls. The rule behind the calls is not given here.

Experiments:
BSC-1 [1] = experiment: Induction of DNA interstand cross-link in SV40-infected african green monkey BSC1 cells assessed as amount of double-stranded DNA remaining after denaturation after 4 hrs; assay type: cell-based; settings: Betapolyomavirus macacae
[2] = molecular target: T1, Serine/threonine-protein kinase Chk1 (Homo sapiens) (UniProt O14757); experiment: Decrease in Chk1-Ser-345 phosphorylation in ataxia telangiectasia mutated and Rad3 related-deficient human HCT116 cells at 3 nM after 1 hr by Western blotting; assay type: cell-based; settings: HCT-116
T1 sequence (whole entry): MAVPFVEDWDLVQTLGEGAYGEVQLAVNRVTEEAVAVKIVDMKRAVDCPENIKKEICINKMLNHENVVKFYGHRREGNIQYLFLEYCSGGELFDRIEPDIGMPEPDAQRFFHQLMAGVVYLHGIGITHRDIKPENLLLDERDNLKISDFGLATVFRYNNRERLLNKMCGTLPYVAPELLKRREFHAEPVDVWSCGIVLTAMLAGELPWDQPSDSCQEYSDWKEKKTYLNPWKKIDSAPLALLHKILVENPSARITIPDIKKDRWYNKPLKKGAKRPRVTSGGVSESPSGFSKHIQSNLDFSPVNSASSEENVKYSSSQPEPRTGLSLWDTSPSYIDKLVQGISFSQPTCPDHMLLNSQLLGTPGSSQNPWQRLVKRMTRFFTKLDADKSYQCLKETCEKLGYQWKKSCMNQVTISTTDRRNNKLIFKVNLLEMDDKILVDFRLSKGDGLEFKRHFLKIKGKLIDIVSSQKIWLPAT

BSC-1 [3] = experiment: Induction of double-strand DNA break in SV40-infected african green monkey BSC1 cells assessed as amount of linear DNA after 4 hrs; assay type: cell-based; settings: Betapolyomavirus macacae
[4] = Induction of double-strand break in BamH1-linearized pBR322 plasmid DNA assessed as linear DNA under aerobic condition relative to C-1027; settings: Bacillus amyloliquefaciens
[5] = tested on: Bacillus amyloliquefaciens; experiment: Induction of interstrand cross-link in BamH1-linearized pBR322 plasmid DNA assessed as amount of double-stranded DNA remaining after denaturation relative to C-1027
HCT-116 [6] = experiment: Ratio of IC50 for mock siRNA-treated human HCT116 cells to IC50 for siATR (ataxia telangiectasia mutated and Rad3 related)-treated human HCT116 cells after 3 days; assay type: functional
BSC-1 [7] = experiment: Induction of double-strand DNA break in SV40-infected african green monkey BSC1 cells assessed as amount of linear DNA at 8 nM after 4 hrs; assay type: cell-based; settings: Betapolyomavirus macacae
[8] = tested on: Bacillus amyloliquefaciens; experiment: Induction of interstrand cross-link in BamH1-linearized pBR322 plasmid DNA assessed as amount of double-stranded DNA remaining at 130 nM after 4 hrs under anaerobic cell-free condition
BSC-1 [9] = experiment: Increase in DNA interstand cross-link in SV40-infected african green monkey BSC1 cells assessed as amount of double-stranded DNA remaining after denaturation at 200 nM after 4 hrs; assay type: cell-based; settings: Betapolyomavirus macacae
HCT-116 [10] = experiment: Induction of DNA interstand cross-link in human HCT116 cells after 4 hrs by comet assay; assay type: cell-based
[11] = molecular target: T1, Serine/threonine-protein kinase Chk1 (Homo sapiens); experiment: Decrease in Chk1-Ser-345 phosphorylation in ataxia telangiectasia mutated and Rad3 related-deficient human HCT116 cells at 1 nM after 1 hr by Western blotting; assay type: cell-based; settings: HCT-116
BSC-1 [12] = experiment: Induction of DNA interstand cross-link in SV40-infected african green monkey BSC1 cells assessed as amount of double-stranded DNA remaining after denaturation at 40 nM after 4 hrs; assay type: cell-based; settings: Betapolyomavirus macacae
HCT-116 [13] = experiment: Induction of double-strand DNA break in human HCT116 cells after 4 hrs by comet assay; assay type: cell-based
[14] = tested on: Bacillus amyloliquefaciens; experiment: Induction of interstrand cross-link in BamH1-linearized pBR322 plasmid DNA assessed as amount of double-stranded DNA remaining at 13 nM after 4 hrs under anaerobic cell-free condition
BSC-1 [15] = experiment: Induction of double-strand DNA break in SV40-infected african green monkey BSC1 cells assessed as amount of linear DNA at 10 uM after 4 hrs; assay type: cell-based; settings: Betapolyomavirus macacae

Row | Activity [4] | Activity [5] | Activity [8] | Activity [14] | SMILES | Activity (BSC-1 [1]) | Activity [2] | Activity (BSC-1 [3]) | Ratio IC50 (HCT-116 [6]) | Activity (BSC-1 [7]) | Activity (BSC-1 [9]) | Activity (HCT-116 [10]) | Activity [11] | Activity (BSC-1 [12]) | Activity (HCT-116 [13]) | Activity (BSC-1 [15])
1 | 0.25% | < 0.003% | – | – | C=C1Oc2cc(OC)cc(C(=O)O[C@H]3COC(=O)C[C@H](N)c4ccc(c(O)c4)O[C@@H]4C#C/C=C/3C#CC3=CC=C[C@@]34O[C@@H]3OC(C)(C)[C@@H](N(C)C)[C@@H](O)[C@H]3O)c2NC1=O | inactive | Active | Dose-dependent effect | 1.3 | – | – | – | – | – | – | –
2 | 1% | 1% | > 30% | 13% | C=C1Oc2cc(OC)cc(C(=O)O[C@H]3COC(=O)C[C@H](N)c4cc(O)c(c(Cl)c4)O[C@@H]4C#C/C=C/3C#CC3=CC=C[C@@]34O[C@@H]3OC(C)(C)[C@@H](N(C)C)[C@@H](O)[C@H]3O)c2NC1=O | – | – | – | 1.1 | 20% | Active | Active | Active | Active | inactive | –
3 | 0.02% | 1% | – | – | C=C1Oc2cc(O)cc(C(=O)O[C@H]3COC(=O)C[C@H](N)c4cc(O)c(c(Cl)c4)O[C@@H]4C#C/C=C/3C#CC3=CC=C[C@@]34O[C@@H]3OC(C)(C)[C@@H](N(C)C)[C@@H](O)[C@H]3O)c2NC1=O | – | – | – | 2.5 | – | Active | Active | – | – | inactive | inactive
4 | 0.033% | – | – | – | C=C1Oc2cc(OC)cc(C(=O)O[C@H]3COC(=O)C[C@H](N)c4ccc(c(Cl)c4)O[C@@H]4C#C/C=C/3C#CC3=CC=C[C@@]34O[C@@H]3OC(C)(C)[C@@H](N(C)C)[C@@H](O)[C@H]3O)c2NC1=O | – | – | – | – | – | – | – | – | – | – | –
